The results in this text go back to patent publication EP4803517A1, “PROTEIN TRANSLATION INHIBITOR” (Duality Biologics (Shanghai) Co., Ltd., priority 2023, dated 2025).

Common to all, as to test: Inhibition of in vitro proliferation of tumor cells (CTG, CellTiter-Glo)
Type in all cases: cell-based

In one assay the test system is SK-OV-3. Particulars: Homo sapiens, 120 h; racemates; SK-OV-3 cells; 5 days of culture; CTG reagent; read-out: Proliferation inhibitory activity IC50 (nM) SK-OV-3. On the procedure:
(§1) Assay objective: To detect the inhibitory effects of the drug compounds on tumor cell proliferation, for example, the inhibitory activity thereof on the in vitro proliferation of NCI-H716, NCI-H1975, NCI-H1373, NCI-H647, NCI-H520, BT474, DLD-1, NCI-N87, NUGC-4, SNU-423, MKN-45, SK-OV-3, OVCAR3, Ls174T, HCC1954, and ES2 tumor cells. The cells were treated with the compounds at different concentrations in vitro. After 5 days of culture, the proliferation of the cells was detected using the CTG (CellTiter-Glo® Luminescent Cell Viability Assay, Promega, Cat. No. G7558) reagent, and the in vitro activity of the compounds was evaluated based on the IC50 value. 1. Cell preparation: NCI-H716, NCI-H1975, NCI-H1373, NCI-H647, NCI-H520, BT474, DLD-1, NCI-N87, NUGC-4, SNU-423, MKN-45, SK-OV-3, OVCAR3, Ls174T, HCC1954, and ES2 cells in the logarithmic phase were each taken, washed once with PBS, and then digested with 2-3 mL of trypsin for 2-3 min. After the cells were digested completely, 10-15 mL of a cell culture medium was added to elute the digested cells. The eluate was centrifuged at 1000 rpm for 5 min, and the supernatant was discarded. Subsequently, the resulting cells were resuspended in 10-20 mL of the cell culture medium to prepare a single-cell suspension. 2. Cell plating: The NCI-H716, NCI-H1975, NCI-H1373, NCI-H647, NCI-H520, NCI-N87, BT474, DLD-1, NCI-N87, NUGC-4, SNU-423, MKN-45, SK-OV-3, OVCAR3, Ls174T, HCC1954, and ES2 single-cell suspensions were each well mixed and adjusted to a viable cell density of 6 × 10^4 cells/mL with the cell culture medium. The density-adjusted cell suspensions were each well mixed and added to a 96-well cell culture plate at 50 µL/well. The culture plate was incubated in an incubator overnight (37 °C, 5% CO2). 3. Compound preparation: Each compound was dissolved in DMSO to prepare a stock solution with an initial concentration of 10 mM. There were 6 concentrations in total for the small molecule compound: 1000 nM, 333 nM, 111 nM, 37.03 nM, 12.34 nM, and 4.11 nM. 4. Sample addition: The prepared test samples at different concentrations were added to the culture plate, with two duplicate wells set for each sample. The culture plate was incubated in the incubator for 5 days (37 °C, 5% CO2). 5. Color development: The 96-well cell culture plate was taken out, and 50 µL of the CTG reagent was added to each well. The plate was then incubated at room temperature for 10 min. 6. Plate reading: The 96-well cell culture plate was taken out and placed in a microplate reader, and the chemiluminescence was measured using the microplate reader. 7. Data analysis: The cell viability was calculated according to the formula: (Lumtest drug - Lumblank control)/(Lumsolvent blank control - Lumblank control) × 100%. Using a nonlinear regression model in the GraphPad Prism software, a sigmoidal dose-survival rate curve was plotted, and the IC50 values were calculated. Table 2. IC50 values for the inhibition of the in vitro proliferation of tumor cells by the racemates of the small molecule compounds of the present application

Another assay concerns NUGC-4. To be noted: Homo sapiens, 120 h; racemates; NUGC-4 cells; 5 days of culture; CTG reagent; read-out: Proliferation inhibitory activity IC50 (nM) NUGC-4. As to the method: as §1
The next assay deals with SNU-423. Particulars: Homo sapiens, 120 h; racemates; SNU-423 cells; 5 days of culture; CTG reagent; read-out: Proliferation inhibitory activity IC50 (nM) SNU-423. On the procedure: as §1
For the next assay, the system named is NCI-N87. To be noted: Homo sapiens, 120 h, racemates, 5 days of culture, CTG reagent, read-out: Proliferation inhibitory activity IC50 (nM) NCI-N87. On the procedure: as §1
For another assay, the system named is BT474. Particulars: Homo sapiens, BT-474, 120 h, 5 days of culture, CTG reagent, read-out: Proliferation inhibitory activity IC50 (nM) BT474. As to the method:
as §1

Another assay concerns MKN-45. To be noted: Homo sapiens, 120 h; racemates; MKN-45 cells; 5 days of culture; CTG reagent; read-out: Proliferation inhibitory activity IC50 (nM) MKN-45. On the procedure:
as §1

A further assay deals with Ls174T. Particulars: Homo sapiens, 120 h, racemates, 5 days of culture, CTG reagent, read-out: Proliferation inhibitory activity IC50 (nM) Ls174T. As to the method:
as §1

For the next assay, the system named is DLD-1. Particulars: Homo sapiens, 120 h, DLD-1 cells, 5 days of culture, CTG reagent, read-out: Proliferation inhibitory activity IC50 (nM) DLD-1. On the procedure: as §1
A further assay relates to HCC1954. Particulars: Homo sapiens, 120 h, racemates, 5 days of culture, CTG reagent, read-out: Proliferation inhibitory activity IC50 (nM) HCC1954. On the procedure: as §1
Setting [1] is: Table 3, chirally resolved compounds.

Read-outs that look alike come from different tables or passages of the source.

Regarding `COC(=O)[C@H]1[C@@H](O)[C@@]2(O)c3c(OC)cc(-c4ncco4)cc3O[C@@]2(c2ccc(C#N)cc2)[C@@H]1c1cccc(N)c1` (racemic) [Racemate of compound 2], the IC50 in the assay on SK-OV-3 worked out at 2.05 nM; in the assay on NUGC-4, 1.98 nM; with SNU-423 it was 3.67 nM; with NCI-N87 it was 2.07 nM; in the assay with BT474 (racemates), 3.33 nM.
On to `COC(=O)[C@H]1[C@@H](O)[C@@]2(O)c3c(OC)cc(-c4cnco4)cc3O[C@@]2(c2ccc(C#N)cc2)[C@@H]1c1cccc(N)c1` (racemic) [Racemate of compound 3], for which the IC50 in the assay with NUGC-4 stood at 3.51 nM; with SNU-423 it was 8.18 nM; in the assay on NCI-N87, 3.63 nM.
Consider `COc1cc(-c2ncco2)cc2c1[C@]1(O)[C@H](O)[C@H](C(=O)N(C)OC)[C@@H](c3cccc(N)c3)[C@]1(c1ccc(C#N)cc1)O2` (racemic) [Racemate of compound 4], for which the IC50 was 1.4 nM with MKN-45 and 3.04 nM with BT474 (racemates).
For `COc1ccc([C@@]23Oc4cc(-c5ncco5)cc(OC)c4[C@]2(O)[C@@H](CN)[C@H](CO)[C@H]3c2ccccc2)cc1` (racemic) [Racemate of compound 9], in that order: 0.695 nM and 0.829 nM.
`COc1cc(-c2ncco2)cc2c1[C@]1(O)[C@H](O)[C@H](C(=O)N(C)OC)[C@@H](c3cccc(O)c3)[C@]1(c1ccc(C#N)cc1)O2` (racemic) [Racemate of compound 15]: the IC50 in the assay on MKN-45 is 2.65 nM.
On the same count and under the same terms, the value for `COc1cc(-c2ncco2)cc2c1[C@]1(O)[C@H](O)[C@H](C(=O)N3CC(O)C3)[C@@H](c3ccccc3)[C@]1(c1ccc(C#N)cc1)O2` (racemic) [Racemate of compound 16] was 2.34 nM.
On the same count and under the same terms, the same measure for `COc1cc(-c2ncc(C#N)cn2)cc2c1[C@]1(O)[C@H](O)[C@H](C(=O)N(C)OC)[C@@H](c3cccc(N)c3)[C@]1(c1ccc(C#N)cc1)O2` (racemic) [Racemate of compound 30]: 1.5 nM; for `COc1cnc(-c2cc(OC)c3c(c2)O[C@@]2(c4ccc(C#N)cc4)[C@H](c4cccc(N)c4)[C@@H](C(=O)N(C)OC)[C@@H](O)[C@@]32O)nc1` (racemic) [Racemate of compound 31]: 1.32 nM.
In the case of `COc1cc(-c2ncc(C(F)(F)F)cn2)cc2c1[C@]1(O)[C@H](O)[C@H](C(=O)N(C)OC)[C@@H](c3cccc(N)c3)[C@]1(c1ccc(C#N)cc1)O2` (racemic) [Racemate of compound 32], the IC50 in the assay on Ls174T came to 5.45 nM.
As for `COc1cnc(-c2cc(OC)c3c(c2)O[C@@]2(c4ccc(C#N)cc4)[C@H](c4cccc(N)c4)[C@@H](C(=O)N(C)OC)[C@@H](O)[C@@]32O)cn1` (racemic) [Racemate of compound 43], the IC50 in the assay with MKN-45 was determined as 2 nM.
For the compound `COc1ccc([C@@]23Oc4cc(-c5ncco5)cc(OC)c4[C@]2(O)[C@H](O)[C@H](C(=O)N2CC(O)C2)[C@H]3c2ccccc2)cc1` (racemic) [Racemate of compound 48], the IC50 in the assay with BT474 (racemates) was found to be 2.25 nM.
As for `COc1ccc([C@@]23Oc4cc(-c5ncco5)ccc4[C@]2(O)[C@H](O)[C@H](C(=O)N(C)C)[C@H]3c2ccccc2)cc1` (racemic) [Racemate of compound 57], in the assay on DLD-1 (racemates), the IC50 is 2.35 nM.
Turning to `COc1ccc([C@@]23Oc4cc(-c5ncco5)cc(OC)c4[C@]2(O)[C@@H](C#N)C[C@H]3c2cccc(N)c2)cc1` (racemic) [Racemate of compound 86], the IC50 in the assay on HCC1954 was 2.15 nM; in the assay on DLD-1 (racemates) it was 2.99 nM.
With `COc1ccc([C@@]23Oc4cc(-c5ncco5)cc(OC)c4[C@]2(O)[C@@H](CNC(=O)NO)C[C@H]3c2ccccc2)cc1` (racemic) [Racemate of compound 87], the IC50 in the assay on DLD-1 (racemates) was found to be 2.84 nM.
Same read-out and setting: the value for `COc1ccc([C@@]23Oc4cc(-c5ncco5)cc(OC)c4[C@]2(O)[C@@H](CNC(=O)[C@H](CO)N(C)C)C[C@H]3c2ccccc2)cc1` (racemic) [Racemate of compound 89] was 1.35 nM.
Still for that read-out and setting: the value for `COc1ccc([C@@]23Oc4cc(-c5ncco5)cc(OC)c4[C@]2(O)[C@@H](CNC(=O)COCCO)C[C@H]3c2ccccc2)cc1` (racemic) [Racemate of compound 91] was 2.16 nM.
`COc1ccc([C@@]23Oc4cc(-c5ncco5)cc(OC)c4[C@]2(O)[C@@H](CNC(=O)CN(C)C)C[C@H]3c2cccc(N)c2)cc1` (racemic) [Racemate of compound 93]: in the assay with HCC1954, the IC50 came out at 1.5 nM.
Consider `COc1ccc([C@@]23Oc4cc(-c5nc(CO)co5)cc(OC)c4[C@]2(O)[C@@H](N(C)C)C[C@H]3c2ccccc2)cc1` (racemic) [Racemate of compound 107], for which the IC50 in the assay with DLD-1 (racemates) came out at 0.92 nM.
In the case of `COc1cc(-c2cscn2)cc2c1[C@]1(O)[C@H](O)[C@H](C(=O)N(C)C)[C@@H](c3cccc(N)c3)[C@]1(c1ccc(C#N)cc1)O2` (racemic) [Racemate of compound 111], the IC50 with HCC1954 is 2.98 nM.
Turning to `COc1ccc([C@@]23Oc4cc(-c5ncco5)cc(OC)c4[C@]2(O)[C@H](O)C[C@H]3c2cccc(N)c2)cc1` (single isomer, unassigned) [Compound 49], the IC50 with BT474 (setting [1]) is less than 10 nM.
In the case of `COc1ccc([C@@]23Oc4cc(-c5ncco5)cc(OC)c4[C@]2(O)[C@@H](CNC(=O)CN(C)C)C[C@H]3c2cccc(N)c2)cc1` (single isomer, unassigned) [Compound 93], the IC50 in the assay on BT474 (setting [1]) and in the assay on DLD-1 (setting [1]) was less than 10 nM in each case.
With `COc1ccc([C@@]23Oc4cc(-c5ncco5)cc(OC)c4[C@]2(O)[C@@H](N(C)C)C[C@H]3c2cccc(N)c2)cc1` (single isomer, unassigned) [Compound 98], the IC50 with BT474 (setting [1]) and with DLD-1 (setting [1]) was less than 10 nM each time.
With `COc1cc(-c2ncco2)cc2c1[C@]1(O)[C@H](O)[C@H](C(=O)N(C)OC)[C@@H](c3cccc(N)c3)[C@]1(c1ccc(C#N)cc1)O2` [Compound 4], the IC50 in the assay with BT474 (setting [1]) and in the assay with DLD-1 (setting [1]) was less than 10 nM throughout.
For the compound `COc1ccc([C@@]23Oc4cc(OC)cc(OC)c4[C@]2(O)[C@H](O)[C@H](C(=O)N(C)C)[C@H]3c2ccccc2)cc1` [Rocaglamide, reference compound], the IC50 in the assay on Ls174T came to 6.08 nM; in the assay with SK-OV-3 it was 8.52 nM; with NUGC-4, 8.25 nM; in the assay with MKN-45, 5.75 nM; in the assay on SNU-423, 14.4 nM; in the assay on HCC1954, 2.66 nM. For the same compound, the figures for the IC50 in the assay on NCI-N87, in the assay on BT474 (racemates) and in the assay with DLD-1 (racemates) were 9.32 nM, 5.49 nM and 8.19 nM, respectively.
